{
  "source": "patent US6060458A",
  "about": "(The United States of America as represented by the …, priority 1998, dated 2000)",
  "key": {"[1]": {"target": "wild-type human alkyltransferase (AGT)", "details": "data previously published, read-out: ED50 for inactivation of AGT; cited from earlier work"}, "[2]": {"target": "T1, mutant human alkyltransferase G156A (Homo sapiens, UniProt P16455, G156A)", "T1 construct": "made in house; E. coli by own knowledge of pIN vectors", "T1 sequence (P16455 1-207 G156A)": "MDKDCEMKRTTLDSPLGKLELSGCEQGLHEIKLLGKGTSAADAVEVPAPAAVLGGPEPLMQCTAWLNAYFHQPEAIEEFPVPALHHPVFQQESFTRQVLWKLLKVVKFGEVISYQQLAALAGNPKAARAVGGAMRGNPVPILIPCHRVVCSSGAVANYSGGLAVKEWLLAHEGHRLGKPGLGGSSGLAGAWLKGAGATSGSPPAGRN", "details": "G156A mutant AGT; data previously published; read-out: ED50 for inactivation of AGT; cited from earlier work"}, "[3]": {"target": "T2, mutant human alkyltransferase P140A (Homo sapiens, UniProt P16455, P140A)", "T2 construct": "made in house; E. coli by own knowledge of pIN vectors", "T2 sequence (P16455 1-207 P140A)": "T1 sequence (P16455 1-207 G156A) with P140A, A156G", "details": "P140A mutant AGT; data previously published; read-out: ED50 for inactivation of AGT; cited from earlier work"}, "[4]": {"test_system": "wild-type human alkyltransferase (AGT)", "test": "Inactivation of purified wild-type human AGT, residual activity on [3H]-methylated DNA substrate", "type": "biochemical", "details": "30 min at 37° C. incubation with inactivator", "description": "(§1) Whether or not a given single-stranded oligodeoxyribonucleotide inactivates a wild-type or mutant human alkyltransferase can be determined by measuring alkyltransferase depletion. For example, a stock solution (100 mM) of a given single-stranded oligodeoxyribonucleotide in an aqueous or mixed aqueous/organic solvent can be prepared. Solutions of the human wild-type AGT, mutant human AGT, or the AGT from HT29 cells and cell extracts (Domoradzki et al., Carcinogenesis 5: 1641-1647 (1984)) can be incubated with varying concentrations (between 0 and 400 μM, for example) of the oligodeoxyribonucleotide for 30 min in a buffer containing 50 mM Tris-HCl, pH 7.5, 0.1 mM EDTA, and 5 mM dithiothreitol, and alkyltransferase depletion can be measured. Alternatively, cells can be plated at a density of 5×10^6 cells/T75 flask and allowed to grow for three days, at which time the medium can be replaced with medium containing a given concentration of an oligodeoxyribonucleotide. After four hours, cells can be harvested and frozen at -80° C. for analysis of alkyltransferase depletion later. Alkyltransferase depletion is determined by measuring loss of O^6 -[^3 H]methylguanine, for example, from a [^3 H]methylated DNA substrate, for example, which can be prepared by reacting [^3 H]methylnitrosourea (21.5 Ci/mmol) with calf thymus DNA as described previously (Domoradzki et al. (1984), supra; and Dolan et al. (1990), supra).\n(§2) Wild-type human AGT and mutants thereof, namely P140A and G156A, were prepared using the pIN vector expression system. pIN-AGT, pIN-P140A (Pro-140 to Ala) and pIN-G156A (Gly-156 to Ala) (Crone et al. (1993), supra; Crone et al. (1994), supra; and Pegg et al. (1993), supra).\n(§3) The wild-type and mutant AGT proteins expressed from the pIN vectors were purified to homogeneity by ammonium sulfate precipitation, Mono-S chromatography and gel filtration as previously described (Pegg et al. (1993), supra; and Kanugula et al. (1995), supra). […] Afterwards, residual AGT activity was determined by a 30 min incubation with a [^3 H]-methylated DNA substrate (1.0 ml volume), which had been methylated by reaction with N-[^3 H]-methyl-N-nitrosourea as previously described (Dolan et al. (1993), supra; and Dolan et al. (1991), supra)."}, "[5]": {"target": "T1, mutant human alkyltransferase G156A", "test": "Inactivation of purified mutant human AGT G156A, residual activity on [3H]-methylated DNA substrate", "type": "biochemical", "details": "30 min at 37° C. incubation with inactivator", "description": "as §1, §2, §3"}, "[6]": {"target": "T2, mutant human alkyltransferase P140A", "test": "Inactivation of purified mutant human AGT P140A, residual activity on [3H]-methylated DNA substrate", "type": "biochemical", "details": "30 min at 37° C. incubation with inactivator", "description": "as §1, §2, §3"}, "AGT": {"test_system": "AGT", "details": "cell culture; maximal reduction attained (Pegg et al. (1995)); cited from earlier work"}},
  "note": "Where a chain is given by its changes, count along the chain named.",
  "data": [
    {"compound": "Nc1nc(OCc2ccccc2)c2[nH]cnc2n1", "note": "[O^6 -benzylguanine]", "values": [
      {"measurement": "IC50", "setting": "[1]", "result": 200, "unit": "nM"}
    ]},
    {"compound": "Nc1nc(OCc2ccccc2)c2ncn([C@H]3C[C@H](O)[C@@H](CO)O3)c2n1", "note": "[O^6-benzyl-2'-deoxyguanosine]", "values": [
      {"measurement": "IC50", "setting": "[1]", "result": 2000, "unit": "nM"},
      {"measurement": "IC50", "setting": "[2]", "result": "> 100000", "unit": "nM"},
      {"measurement": "IC50", "setting": "[3]", "result": "> 20000", "unit": "nM"}
    ]},
    {"compound": "5'-d(TGAb^6 GCTG)-3'", "values": [
      {"measurement": "ED50 for inactivation of AGT (concentration needed to reduce AGT activity by 50%)", "setting": "[4]", "result": 7, "unit": "nM"},
      {"measurement": "ED50 for inactivation of AGT (concentration needed to reduce AGT activity by 50%)", "setting": "[5]", "result": 50, "unit": "nM"},
      {"measurement": "ED50 for inactivation of AGT (concentration needed to reduce AGT activity by 50%)", "setting": "[6]", "result": 60, "unit": "nM"}
    ]},
    {"compound": "5'-d(GAb^6 GCT)-3'", "values": [
      {"measurement": "ED50 for inactivation of AGT (concentration needed to reduce AGT activity by 50%)", "setting": "[4]", "result": 13, "unit": "nM"},
      {"measurement": "ED50 for inactivation of AGT (concentration needed to reduce AGT activity by 50%)", "setting": "[5]", "result": 60, "unit": "nM"},
      {"measurement": "ED50 for inactivation of AGT (concentration needed to reduce AGT activity by 50%)", "setting": "[6]", "result": 50, "unit": "nM"}
    ]},
    {"compound": "5'-d(TGTGAb^6 GCTGTG)-3'", "values": [
      {"measurement": "ED50 for inactivation of AGT (concentration needed to reduce AGT activity by 50%)", "setting": "[4]", "result": 13, "unit": "nM"},
      {"measurement": "ED50 for inactivation of AGT (concentration needed to reduce AGT activity by 50%)", "setting": "[5]", "result": 110, "unit": "nM"},
      {"measurement": "ED50 for inactivation of AGT (concentration needed to reduce AGT activity by 50%)", "setting": "[6]", "result": 75, "unit": "nM"}
    ]},
    {"compound": "COc1nc(N)nc2[nH]cnc12", "note": "[O^6 -methylguanine]", "values": [
      {"measurement": "reduction of AGT activity", "setting": "AGT", "result": 85, "unit": "%"}
    ]},
    {"compound": "5'-d(GTGAb^6 GCTGT)-3'", "values": [
      {"measurement": "ED50 for inactivation of AGT (concentration needed to reduce AGT activity by 50%)", "setting": "[4]", "result": 8, "unit": "nM"},
      {"measurement": "ED50 for inactivation of AGT (concentration needed to reduce AGT activity by 50%)", "setting": "[5]", "result": 90, "unit": "nM"},
      {"measurement": "ED50 for inactivation of AGT (concentration needed to reduce AGT activity by 50%)", "setting": "[6]", "result": 60, "unit": "nM"}
    ]},
    {"compound": "5'-d(Ab^6 GC)-3'", "values": [
      {"measurement": "ED50 for inactivation of AGT (concentration needed to reduce AGT activity by 50%)", "setting": "[4]", "result": 90, "unit": "nM"},
      {"measurement": "ED50 for inactivation of AGT (concentration needed to reduce AGT activity by 50%)", "setting": "[5]", "result": 4600, "unit": "nM"},
      {"measurement": "ED50 for inactivation of AGT (concentration needed to reduce AGT activity by 50%)", "setting": "[6]", "result": 770, "unit": "nM"}
    ]}
  ]
}
